In ChEMBL document CHEMBL1150559 (Bioorg Med Chem Lett, 1997):
Values after ≈ are worked out from the molar mass of the structure shown.

Key:
Substance-P receptor [1] = biological target: Substance-P receptor (Cavia porcellus, UniProt P30547); assay: Antagonism of the guinea pig tachykinin NK1 receptor; format: functional
Histamine H1 receptor [2] = biological target: T1, Histamine H1 receptor (Homo sapiens, UniProt P35367); format: functional
Substance-P receptor [3] = biological target: Substance-P receptor (Homo sapiens, UniProt P25103); assay: Compound was evaluated for the antagonistic activity against NK1 receptor; format: functional
Histamine H1 receptor [4] = biological target: T1, Histamine H1 receptor; assay: Compound was evaluated for the antagonistic activity against H1 receptor; format: functional
Substance-K receptor = biological target: T2, Substance-K receptor (Homo sapiens, UniProt P21452); assay: Compound was evaluated for the antagonistic activity against Tachykinin receptor 2; format: functional
T2 sequence (P21452 whole entry): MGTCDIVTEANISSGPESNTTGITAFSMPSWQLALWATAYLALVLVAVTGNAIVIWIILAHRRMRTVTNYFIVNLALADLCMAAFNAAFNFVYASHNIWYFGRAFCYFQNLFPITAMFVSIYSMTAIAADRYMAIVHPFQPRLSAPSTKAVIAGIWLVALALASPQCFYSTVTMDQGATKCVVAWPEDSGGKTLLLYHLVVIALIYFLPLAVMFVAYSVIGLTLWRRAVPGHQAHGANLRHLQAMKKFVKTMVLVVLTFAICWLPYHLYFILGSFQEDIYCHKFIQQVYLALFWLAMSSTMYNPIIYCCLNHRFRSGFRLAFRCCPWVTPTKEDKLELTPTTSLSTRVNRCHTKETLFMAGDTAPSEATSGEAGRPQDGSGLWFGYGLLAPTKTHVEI

[5] = Dose-dependent inhibition of SP-induced increases in phosphatidylinositol turnover in UC11 cells; format: functional, cell-based; details: Homo sapiens, read-out: pA2 (converted)
Cavia porcellus [6] = species: Cavia porcellus; assay: Compound with maleate salt was tested for inhibition of histamine-induced skin wheal response in guinea pigs; format: functional
Cavia porcellus [7] = species: Cavia porcellus; assay: Inhibition of histamine-induced contraction of guinea pig ileum in a concentration-dependent fashion; format: functional; details: read-out: pA2 (converted)
[8] = Compound was calculated log P; details: pH 7.4
[9] = Compound was tested for its solubility at pH 7.4; format: physicochemical; details: buffer

T1 sequence (P35367 whole entry): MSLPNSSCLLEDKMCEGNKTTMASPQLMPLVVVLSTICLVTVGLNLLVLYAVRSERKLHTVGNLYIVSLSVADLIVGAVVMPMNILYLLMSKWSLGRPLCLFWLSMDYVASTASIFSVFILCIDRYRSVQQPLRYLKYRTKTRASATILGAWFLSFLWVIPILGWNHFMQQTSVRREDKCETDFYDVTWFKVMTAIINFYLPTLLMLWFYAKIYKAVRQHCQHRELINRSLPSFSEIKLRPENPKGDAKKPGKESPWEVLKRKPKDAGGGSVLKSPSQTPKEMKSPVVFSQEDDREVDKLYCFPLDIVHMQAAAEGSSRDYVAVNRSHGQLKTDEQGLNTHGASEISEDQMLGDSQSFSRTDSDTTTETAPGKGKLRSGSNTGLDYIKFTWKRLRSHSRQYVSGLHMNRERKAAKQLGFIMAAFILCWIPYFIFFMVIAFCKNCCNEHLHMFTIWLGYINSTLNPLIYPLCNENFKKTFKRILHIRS
Sequence of Substance-P receptor (Cavia porcellus, UniProt P30547) (P30547 whole entry): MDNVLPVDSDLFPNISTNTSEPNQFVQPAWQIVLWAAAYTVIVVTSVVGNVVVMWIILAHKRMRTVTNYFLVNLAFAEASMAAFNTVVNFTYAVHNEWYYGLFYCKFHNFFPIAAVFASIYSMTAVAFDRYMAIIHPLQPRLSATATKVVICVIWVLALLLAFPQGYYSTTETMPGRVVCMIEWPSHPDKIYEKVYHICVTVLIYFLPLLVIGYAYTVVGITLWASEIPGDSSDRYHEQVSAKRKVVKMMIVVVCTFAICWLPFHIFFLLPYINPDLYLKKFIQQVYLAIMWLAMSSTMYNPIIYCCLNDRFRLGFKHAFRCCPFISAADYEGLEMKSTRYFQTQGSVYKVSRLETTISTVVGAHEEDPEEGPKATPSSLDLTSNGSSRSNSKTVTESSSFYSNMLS
Sequence of Substance-P receptor (Homo sapiens, UniProt P25103) (P25103 whole entry): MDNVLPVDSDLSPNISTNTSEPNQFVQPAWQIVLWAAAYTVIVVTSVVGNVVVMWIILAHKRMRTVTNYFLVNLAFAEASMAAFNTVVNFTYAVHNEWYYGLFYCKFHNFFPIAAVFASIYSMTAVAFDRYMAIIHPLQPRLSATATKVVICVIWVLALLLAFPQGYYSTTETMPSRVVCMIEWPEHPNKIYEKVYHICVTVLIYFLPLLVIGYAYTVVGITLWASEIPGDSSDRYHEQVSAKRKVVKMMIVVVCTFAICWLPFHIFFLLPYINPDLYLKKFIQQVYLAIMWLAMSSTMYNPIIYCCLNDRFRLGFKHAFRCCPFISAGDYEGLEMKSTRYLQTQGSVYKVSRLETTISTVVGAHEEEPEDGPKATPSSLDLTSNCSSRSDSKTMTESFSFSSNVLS

IC50 (Substance-P receptor [1]) | IC50 (Histamine H1 receptor [2]) | Compound | other results
0.016 µM | 0.994 µM | COC(=O)c1ccccc1OCCCn1c(C(=O)C2CCN(CCC3(c4ccccc4)CCN(C(=O)c4cc(OC)c(OC)c(OC)c4)C3)CC2)nc2ccccc21 (centres undefined) | 
0.026 µM |  | CCOCCn1c(C(=O)C2CCN(CCC3(c4ccccc4)CCN(C(=O)c4cc(OC)c(OC)c(OC)c4)C3)CC2)nc2ccccc21 (centres undefined) | 
0.023 µM | 1.21 µM | COC(=O)c1ccc(Cn2c(C(=O)C3CCN(CCC4(c5ccccc5)CCN(C(=O)c5cc(OC)c(OC)c(OC)c5)C4)CC3)nc3ccccc32)cc1 (centres undefined) | 
0.012 µM | 0.446 µM | COc1cc(C(=O)N2CCC(CCN3CCC(C(=O)c4nc5ccccc5n4CCOCc4ccco4)CC3)(c3ccccc3)C2)cc(OC)c1OC (centres undefined) | 
0.027 µM |  | COc1cc(C(=O)N2CCC(CCN3CCC(C(=O)c4nc5ccccc5n4Cc4cccnc4)CC3)(c3ccccc3)C2)cc(OC)c1OC (centres undefined) | 
0.037 µM |  | COc1cc(C(=O)N2CCC(CCN3CCC(C(=O)c4nc5ccccc5n4Cc4ccncc4)CC3)(c3ccccc3)C2)cc(OC)c1OC (centres undefined) | 
0.042 µM |  | COc1ccc(C2(CCN3CCC(C(=O)c4nc5ccccc5n4Cc4ccccn4)CC3)CCN(C(=O)c3cc(OC)c(OC)c(OC)c3)C2)cc1 (centres undefined) | 
0.034 µM |  | COc1cc(C(=O)N2CCC(CCN3CCC(C(=O)c4nc5ccccc5n4Cc4ccc(F)cc4)CC3)(c3ccccc3)C2)cc(OC)c1OC (centres undefined) | 
0.036 µM | 3.42 µM | COc1cc(C(=O)N2CCC(CCN3CCC(C(=O)c4nc5ccccc5n4Cc4ccc(C(=O)O)cc4)CC3)(c3ccccc3)C2)cc(OC)c1OC (centres undefined) | 
0.027 µM | 9.45 µM | COc1cc(C(=O)N2CCC(CCN3CCC(C(=O)c4nc5ccccc5n4CCCOc4ccccc4C(=O)O)CC3)(c3ccccc3)C2)cc(OC)c1OC (centres undefined) | 
0.021 µM |  | COc1cc(C(=O)N2CCC(CCN3CCC(C(=O)c4nc5ccccc5n4Cc4ccco4)CC3)(c3ccccc3)C2)cc(OC)c1OC (centres undefined) | 
0.027 µM |  | COc1cc(C(=O)N2CCC(CCN3CCC(C(=O)c4nc5ccccc5n4Cc4ccccn4)CC3)(c3ccccc3)C2)cc(OC)c1OC (centres undefined) | ED50 (Cavia porcellus [6]): 10.3 mg/kg; logP [8]: 3.22; solubility [9]: 0.038 mg/mL (≈ 55.2 µM)

Second part, the compound before the results:

Compound | IC50 (Substance-P receptor [1]) | IC50 (Histamine H1 receptor [2]) | other results
COc1cc(C(=O)N2CCC(CCN3CCC(C(=O)c4nc5ccccc5n4Cc4ccc(F)cc4)CC3)(c3ccc(F)cc3F)C2)cc(OC)c1OC (centres undefined) | 0.296 µM |  | 
COc1cc(C(=O)N2CC[C@](CCN3CCC(C(N)=O)(c4ccccc4)CC3)(c3ccc(Cl)c(Cl)c3)C2)cc(OC)c1OC |  |  | IC50 (Substance-P receptor [3]): 0.003 µM; IC50 (Histamine H1 receptor [4]): 10 µM; IC50 (Substance-K receptor): 0.008 µM
COc1cc(C(=O)N2CCC(CCN3CCC(C(=O)c4nc5ccccc5n4Cc4ccc(F)cc4)CC3)(c3ccc(Cl)c(Cl)c3)C2)cc(OC)c1OC (centres undefined) | 0.092 µM | 0.124 µM | 
COc1cc(C(=O)N2CCC(CCN3CCC(C(=O)c4nc5ccccc5[nH]4)CC3)(c3ccccc3)C2)cc(OC)c1OC (centres undefined) | 0.036 µM |  | 
COc1cc(C(=O)N2CCC(CCN3CCC(C(=O)c4nc5ccccc5n4Cc4ccccn4)CC3)(c3ccc(Cl)c(Cl)c3)C2)cc(OC)c1OC (centres undefined) | 0.032 µM |  | 
COc1ccc(C2(CCN3CCC(C(=O)c4nc5ccccc5n4Cc4ccc(F)cc4)CC3)CCN(C(=O)c3cc(OC)c(OC)c(OC)c3)C2)cc1OC (centres undefined) |  | 0.309 µM | Kb [5]: 0.0661 µM; ED50 (Cavia porcellus [6]): 18.9 mg/kg; Kb (Cavia porcellus [7]): 0.0302 µM; logP [8]: 4.72; solubility [9]: < 0.0001 mg/mL
COc1cc(C(=O)N2CCC(CCN3CCC(C(=O)c4nc5ccccc5n4Cc4ccc(F)cc4)CC3)(c3ccc(C(F)(F)F)cc3)C2)cc(OC)c1OC (centres undefined) | 0.117 µM |  | 
COc1ccc(CCN2CCC(C(=O)c3nc4ccccc4n3Cc3ccc(F)cc3)CC2)cc1 |  |  | IC50 (Substance-P receptor [3]): 5.2 µM; IC50 (Substance-K receptor): 3.39 µM
COc1ccccc1CN[C@H]1C2CCN(CC2)[C@H]1C(c1ccccc1)c1ccccc1 [CP-96345] |  | ~10 µM | 
CC(C)(C)c1ccc(C(O)CCCN2CCC(C(O)(c3ccccc3)c3ccccc3)CC2)cc1 (centres undefined) [TERFENADINE] | > 10 µM |  | 
